# Experiments:
# [1] = HPLC analysis of concentration and degradation of Compound 11 in mineral oil mixtures after ball milling agitation; assay type: physicochemical
# Procedure: The following HPLC method was used to analyze whether the concentration of fluorescent molecular rotor compounds in mixtures of mineral oil and Compound 11 was consistent with the expected concentration of the mixture. The HPLC analysis was also used to evaluate degradation of Compound 11 in the mixture. The HPLC instrument used was a Waters 2695 Separation Module, or equivalent containing a pump capable of delivering a gradient flow rate of 1.0 mL/min or equivalent and a Waters 2487 Multiwavelength Detector, or dual wavelength detector capable of detection at 215 nm and 320 nm, or equivalent. The column used was a Waters Deltapak C18 column, 5 μm, 3.9×150 mm, (Waters Corp., Milford, Mass., Catalog No.: WAT011793). The flow rate was 1.0 mL/min with detection at a wavelength of 215 nm and a column temperature of 25° C. The injection volume used for the concentration sample evaluation was 20 μL and for the related substances sample evaluation was 50 μL. The mobile phases were A: 0.1% trifluoroacetic acid in water, C: methanol, and D: ethanol, and the gradient program shown in Table 2 was used for the HPLC method.
# In a mixture sample compared to a standard sample, increased relative peak area of the related substance peak (RT of 3.8 min, Table 3) compared to the peak area of Compound 11 (RT of 8.5 min, Table 3) would indicate degradation of Compound 11. The concentration in the mixture sample of Compound 11 was determined by analyzing the HPLC peak with a retention time of 8.5 min (Table 3) compared to a standard sample of Compound 11.
# However, the concentration of the mixture of Compound 11 and heavy mineral oil after ball milling agitation with YTZ® grinding media beads of an average diameter of 0.5 mm was determined by HPLC (RT of 8.5 min, Table 3) to be 4.75 mg/g as compared to an expected concentration of 48.12 mg/g (504.3 mg/10.48 g, mineral oil and Compound 11). […] The concentration as measured by HPLC of the mixture of Compound 11 and heavy mineral oil after ball milling agitation with beads of an average diameter of 5 mm was 44.9 mg/g as compared to an expected concentration of 47.98 mg/g (504.8 mg/10.52 g, mineral oil and Compound 11), which was within the acceptable range.
# [2] = Microscopic examination of mixture after ball milling agitation (particle size, uniformity); assay type: physicochemical; conditions: heavy mineral oil, ball milling with 5 mm grinding media beads
# Procedure: Microscopic examination of mixtures after ball milling can be used to assess uniformity and to estimate the particle size of the fluorescent molecular rotor compounds. Microscopic examination of the mixtures containing Compound 11 were performed using a compound optical microscope with a calibrated eyepiece micrometer, or reticle. For example, the eyepiece micrometer, reticle, can be aligned and calibrated with the stage micrometer by aligning the zero line of the reticle with the zero line of the stage micrometer, and the ratios between the micrometers or scales can be used to determine sizes and distances.
smiles,measurement,setting,value
COCCOCCOCCOC(=O)/C(C#N)=C/c1ccc2cc(N3CCCCC3)ccc2c1 [Compound 11],concentration of the mixture determined by HPLC,"[1]; heavy mineral oil, ball milling with YTZ beads of average diameter 0.5 mm, expected 48.12 mg/g",4.75 mg/g
same,concentration of the mixture measured by HPLC,"[1]; heavy mineral oil, ball milling with beads of average diameter 5 mm, expected 47.98 mg/g",44.9 mg/g
same,degradation of Compound 11 based on changes in the related substance peak (RT 3.8 min),"[1]; mixture in heavy mineral oil, after ball milling agitation, HPLC",no significant degradation
same,degradation of Compound 11 as analyzed by HPLC,"[1]; mixture in heavy mineral oil, ball milling agitation with YTZ 5 mm beads",without degradation
same,particle diameter by microscopic examination,[2],approximately 5 microns

# From US10350309B2, “Methods of preparing ophthalmic formulations and uses of same” (Cognoptix, Inc., priority 2013, dated 2019)
